Legend:
[1] = system: KLF4, c-Myc, CDX2, p21, and GAPDH genes; experiment: In vitro changes in gene expression; assay type: cell-based; details: AML cell lines
Excerpt: (§1) Compound I free base and Compound I HCl salt were both tested for their in vitro antiproliferative potency against acute myeloid leukemia (AML) cell lines, for their concentration-dependent abilities to induce in vitro changes in gene expression (KLF4, c-Myc, CDX2, p21, and GAPDH genes) and to induce cell cycle arrest and apoptosis in AML cell lines.

[2] = system: acute myeloid leukemia (AML) cell lines; experiment: In vitro antiproliferative assay; assay type: cell-based
Excerpt: as §1

[3] = Formulation development: solubility and clinical infusion simulation through 5 μm in-line filter; assay type: physicochemical
Experimental: Various pharmaceutical compositions were prepared in order to develop a formulation suitable for IV administration. […] A desirable IV pharmaceutical composition will be a solution. Further, a desirable IV pharmaceutical composition, when diluted with IV fluids will remain in solution. In addition, a desirable IV pharmaceutical composition, when diluted with IV fluids will remain in solution and pass an in-line filter of about 5 μm.
Clinical infusion simulation study: formulated Compound I (equivalent to 4 mg/mL Compound I free base tetrahydrate) was mixed in-line with Lactated Ringers IV Solution through a controlled delivery system employing infusion pumps. The blended liquid was passed through a 5 μm in-line filter and the eluate was then passed to the end of the infusion line. Sample analysis was performed by collecting materials at 0, 15, 30, 60, 75, 90, 105, 115 and 120 minutes and analyzing immediately be visual assessment under a microscope.

[4] = system: xenograft models of solid tumors and hematologic cancers; experiment: Nonclinical pharmacology xenograft studies; assay type: in vivo
Excerpt: (§2) Compound I is a small molecule that inhibits expression of the c-Myc oncogene, leading to cell cycle arrest and programmed cell death (apoptosis) in human-derived solid tumor and hematologic cancer cells.

[5] = system: c-Myc oncogene; experiment: Inhibition of c-Myc expression in cancer cells; assay type: cell-based; details: human-derived solid tumor and hematologic cancer cells
Excerpt: as §2

[6] = system: AML cell lines; experiment: Induction of cell cycle arrest and apoptosis; assay type: cell-based
Excerpt: as §1

solubility compared with Compound I-HCl under the same conditions ([3]; Solutol HS 15, PG, PEG-400, water): more soluble
apparent solubility while adding water to the formulation ([3]; in the beginning, approximately 3-10 mL water added): more soluble
behaviour upon addition of IV fluid ([3]; pharmaceutical composition prepared with Fischer Scientific's PG): crashed out of solution
effect of PEG-400 on solubility ([3]; tested conditions (entries 2 and 3)): did not improve solubility
apparent solubility while adding water to the formulation ([3]; upon complete addition of water (up to 60 mL), cloudy formulation): insoluble
SMILES: Cc1[nH]c2ccc(F)cc2c1-c1nc2c3cccnc3c3ncccc3c2[nH]1 [Compound I, 2-(5-fluoro-2-methyl-1H-indol-3-yl)-1H-imidazo[4,5-f][1,10]phenanthroline]
concentration-dependent in vitro changes in gene expression, free base versus HCl salt [1]: behaved equivalently
in vitro antiproliferative potency, free base versus HCl salt [2]: behaved equivalently
in vivo anti-tumor activity [4]: demonstrated in vivo anti-tumor activity
expression of the c-Myc oncogene [5]: inhibits
induction of cell cycle arrest and apoptosis, free base versus HCl salt [6]: behaved equivalently

From US20210380586A1, “2-INDOLYL IMIDAZO[4,5-D]PHENANTHROLINE POLYMORPHS AND COMPOSITIONS REGARDING THE SAME” (Aptose Biosciences Inc., priority 2020, published 2021)
